Data: publication PMC11062922 (Nature Chemical Biology, 2023)
Where two headings read alike, the source gives them in different places.

Legend:
PKN3 = PKN3 (Homo sapiens, UniProt Q6P5Z2); test: NanoBRET in-cell target engagement in HEK293T cells: PKN3; type: cell-based; design: full-length PKN3, CSNK2A1 or CSNK2A2 ORF; host or cells: HEK293T;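 also: Full-length PKN3 with C-terminal NanoLuc expressed in HEK293T cells, serial inhibitor dilutions competing against Kinase Tracer K5 at 500 nM, BRET read after 2 h at 37 °C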
Chain of PKN3 (Q6P5Z2 whole entry): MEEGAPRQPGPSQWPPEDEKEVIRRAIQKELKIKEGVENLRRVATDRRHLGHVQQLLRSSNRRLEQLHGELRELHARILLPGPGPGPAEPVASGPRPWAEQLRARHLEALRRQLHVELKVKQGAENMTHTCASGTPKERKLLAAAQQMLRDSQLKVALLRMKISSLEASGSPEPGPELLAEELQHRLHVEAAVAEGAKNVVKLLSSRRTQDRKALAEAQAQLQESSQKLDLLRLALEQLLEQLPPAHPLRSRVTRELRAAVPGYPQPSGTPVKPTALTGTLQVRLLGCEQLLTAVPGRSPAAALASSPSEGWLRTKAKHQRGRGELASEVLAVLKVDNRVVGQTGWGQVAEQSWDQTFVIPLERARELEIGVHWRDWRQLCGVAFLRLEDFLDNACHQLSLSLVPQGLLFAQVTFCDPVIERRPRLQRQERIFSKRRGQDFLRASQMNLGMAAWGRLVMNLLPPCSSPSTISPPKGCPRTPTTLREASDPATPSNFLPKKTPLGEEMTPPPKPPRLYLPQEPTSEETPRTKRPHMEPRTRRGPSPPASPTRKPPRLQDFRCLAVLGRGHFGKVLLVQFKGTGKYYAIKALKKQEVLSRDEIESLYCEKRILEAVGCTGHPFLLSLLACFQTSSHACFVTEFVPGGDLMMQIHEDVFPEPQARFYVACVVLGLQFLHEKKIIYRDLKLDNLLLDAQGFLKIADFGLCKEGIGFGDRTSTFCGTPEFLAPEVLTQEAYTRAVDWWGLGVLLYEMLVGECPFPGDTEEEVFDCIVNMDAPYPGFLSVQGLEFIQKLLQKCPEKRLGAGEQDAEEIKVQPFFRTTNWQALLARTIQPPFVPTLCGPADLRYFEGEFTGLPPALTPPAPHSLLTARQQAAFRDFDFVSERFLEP

ACAD11 = biological target: T1, ACAD11 (Homo sapiens, UniProt Q709F0); test: Kinobeads two-dose competition binding: ACAD11; conditions: sheet CATDS matrix 2; Gene Name ACAD11
T1 construct: endogenous in cells
T1 sequence (Q709F0 1-780): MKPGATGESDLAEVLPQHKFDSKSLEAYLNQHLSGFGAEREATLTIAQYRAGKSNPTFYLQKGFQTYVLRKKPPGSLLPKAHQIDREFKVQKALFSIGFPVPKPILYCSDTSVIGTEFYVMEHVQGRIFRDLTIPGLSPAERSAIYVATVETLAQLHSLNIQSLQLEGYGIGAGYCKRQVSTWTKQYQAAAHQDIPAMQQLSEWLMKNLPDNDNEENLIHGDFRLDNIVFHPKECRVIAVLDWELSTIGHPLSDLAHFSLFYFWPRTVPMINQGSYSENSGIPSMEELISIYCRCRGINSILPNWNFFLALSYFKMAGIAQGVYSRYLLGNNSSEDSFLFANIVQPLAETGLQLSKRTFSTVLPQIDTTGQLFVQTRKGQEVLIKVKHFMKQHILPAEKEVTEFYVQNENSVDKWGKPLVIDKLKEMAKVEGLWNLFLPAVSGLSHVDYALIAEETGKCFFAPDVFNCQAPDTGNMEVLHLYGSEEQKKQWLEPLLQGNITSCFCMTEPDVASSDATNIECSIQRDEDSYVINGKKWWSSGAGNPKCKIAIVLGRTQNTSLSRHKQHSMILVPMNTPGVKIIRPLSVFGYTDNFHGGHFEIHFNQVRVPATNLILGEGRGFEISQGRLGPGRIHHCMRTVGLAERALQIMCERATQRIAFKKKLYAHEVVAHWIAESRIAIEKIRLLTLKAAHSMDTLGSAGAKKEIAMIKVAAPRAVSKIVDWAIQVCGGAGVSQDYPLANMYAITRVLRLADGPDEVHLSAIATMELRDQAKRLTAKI

AAK1 = biological target: T2, AAK1 (Homo sapiens, UniProt Q2M2I8); test: Kinobeads two-dose competition binding: AAK1; conditions: for CATDS: sheet CATDS matrix 2, Gene Name AAK1; for potency estimated from few doses: read-out: Kinobeads Drugmatrix - all: apparent Kd, AAK1;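 as to all read-outs here: kinobeads competition pulldown from cell lysate, compound preincubated 45 min at 4 °C, bead-bound protein measured by label-free mass spectrometry against DMSO vehicle control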
T2 construct: to maximize the representation of endogenous proteins; endogenous in cells
T2 sequence (Q2M2I8 whole entry): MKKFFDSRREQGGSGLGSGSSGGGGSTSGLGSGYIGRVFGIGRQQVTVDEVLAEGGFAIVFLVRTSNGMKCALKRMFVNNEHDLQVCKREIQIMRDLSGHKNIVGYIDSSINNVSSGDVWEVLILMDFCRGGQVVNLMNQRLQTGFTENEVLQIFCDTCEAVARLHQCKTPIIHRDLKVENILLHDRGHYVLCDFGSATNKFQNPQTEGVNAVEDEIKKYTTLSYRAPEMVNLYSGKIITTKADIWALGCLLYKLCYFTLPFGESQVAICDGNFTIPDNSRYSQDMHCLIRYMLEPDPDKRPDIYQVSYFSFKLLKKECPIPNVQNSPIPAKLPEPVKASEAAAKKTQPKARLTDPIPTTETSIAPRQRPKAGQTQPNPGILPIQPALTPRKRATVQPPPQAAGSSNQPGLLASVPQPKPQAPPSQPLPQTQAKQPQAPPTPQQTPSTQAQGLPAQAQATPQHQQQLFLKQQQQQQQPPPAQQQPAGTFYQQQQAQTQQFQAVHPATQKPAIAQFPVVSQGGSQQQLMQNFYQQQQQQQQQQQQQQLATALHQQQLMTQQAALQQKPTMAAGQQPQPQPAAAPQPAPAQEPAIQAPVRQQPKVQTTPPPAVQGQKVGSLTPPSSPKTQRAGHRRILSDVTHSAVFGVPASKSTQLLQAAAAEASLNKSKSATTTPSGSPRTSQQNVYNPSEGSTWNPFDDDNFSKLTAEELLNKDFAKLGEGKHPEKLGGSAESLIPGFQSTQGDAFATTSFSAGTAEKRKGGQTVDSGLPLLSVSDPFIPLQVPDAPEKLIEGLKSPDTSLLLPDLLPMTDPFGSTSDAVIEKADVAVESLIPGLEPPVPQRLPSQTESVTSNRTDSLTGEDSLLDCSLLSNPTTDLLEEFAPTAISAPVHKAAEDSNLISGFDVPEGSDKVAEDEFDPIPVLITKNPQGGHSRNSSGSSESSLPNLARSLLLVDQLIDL

ACOX1 = biological target: T3, ACOX1 (Homo sapiens, UniProt Q15067); test: Kinobeads two-dose competition binding: ACOX1; conditions: for CATDS: sheet CATDS matrix 2, Gene Name ACOX1;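 as to all read-outs here: competition of compounds with immobilized broad-spectrum kinase inhibitor beads in cell lysate at 100 and 1,000 nM, 45 min at 4 °C, bead-bound protein quantified by label-free MS versus DMSO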
T3 construct: endogenous in cells
T3 sequence (Q15067 1-660): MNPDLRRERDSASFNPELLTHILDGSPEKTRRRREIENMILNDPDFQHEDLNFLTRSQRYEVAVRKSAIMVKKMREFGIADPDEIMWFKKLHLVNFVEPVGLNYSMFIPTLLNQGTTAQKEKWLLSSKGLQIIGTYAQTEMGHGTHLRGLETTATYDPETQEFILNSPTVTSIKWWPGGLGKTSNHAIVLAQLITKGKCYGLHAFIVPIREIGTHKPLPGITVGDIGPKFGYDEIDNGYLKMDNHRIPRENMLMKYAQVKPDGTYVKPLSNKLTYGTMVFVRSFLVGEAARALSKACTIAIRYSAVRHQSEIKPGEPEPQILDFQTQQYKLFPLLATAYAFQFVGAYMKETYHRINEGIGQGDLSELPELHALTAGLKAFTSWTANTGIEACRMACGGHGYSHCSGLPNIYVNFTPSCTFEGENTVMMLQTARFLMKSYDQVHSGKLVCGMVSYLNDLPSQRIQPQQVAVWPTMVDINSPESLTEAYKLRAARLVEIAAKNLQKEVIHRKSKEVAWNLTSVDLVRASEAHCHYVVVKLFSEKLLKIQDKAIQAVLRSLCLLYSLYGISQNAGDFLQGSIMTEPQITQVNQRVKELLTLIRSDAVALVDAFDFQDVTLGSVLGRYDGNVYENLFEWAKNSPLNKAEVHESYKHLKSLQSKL

ABL1 = ABL1 (Homo sapiens, UniProt P00519); test: Kinobeads two-dose competition binding: ABL1; conditions: sheet CATDS matrix 2; Gene Name ABL1
Chain of ABL1 (P00519 28-1130 limits assumed): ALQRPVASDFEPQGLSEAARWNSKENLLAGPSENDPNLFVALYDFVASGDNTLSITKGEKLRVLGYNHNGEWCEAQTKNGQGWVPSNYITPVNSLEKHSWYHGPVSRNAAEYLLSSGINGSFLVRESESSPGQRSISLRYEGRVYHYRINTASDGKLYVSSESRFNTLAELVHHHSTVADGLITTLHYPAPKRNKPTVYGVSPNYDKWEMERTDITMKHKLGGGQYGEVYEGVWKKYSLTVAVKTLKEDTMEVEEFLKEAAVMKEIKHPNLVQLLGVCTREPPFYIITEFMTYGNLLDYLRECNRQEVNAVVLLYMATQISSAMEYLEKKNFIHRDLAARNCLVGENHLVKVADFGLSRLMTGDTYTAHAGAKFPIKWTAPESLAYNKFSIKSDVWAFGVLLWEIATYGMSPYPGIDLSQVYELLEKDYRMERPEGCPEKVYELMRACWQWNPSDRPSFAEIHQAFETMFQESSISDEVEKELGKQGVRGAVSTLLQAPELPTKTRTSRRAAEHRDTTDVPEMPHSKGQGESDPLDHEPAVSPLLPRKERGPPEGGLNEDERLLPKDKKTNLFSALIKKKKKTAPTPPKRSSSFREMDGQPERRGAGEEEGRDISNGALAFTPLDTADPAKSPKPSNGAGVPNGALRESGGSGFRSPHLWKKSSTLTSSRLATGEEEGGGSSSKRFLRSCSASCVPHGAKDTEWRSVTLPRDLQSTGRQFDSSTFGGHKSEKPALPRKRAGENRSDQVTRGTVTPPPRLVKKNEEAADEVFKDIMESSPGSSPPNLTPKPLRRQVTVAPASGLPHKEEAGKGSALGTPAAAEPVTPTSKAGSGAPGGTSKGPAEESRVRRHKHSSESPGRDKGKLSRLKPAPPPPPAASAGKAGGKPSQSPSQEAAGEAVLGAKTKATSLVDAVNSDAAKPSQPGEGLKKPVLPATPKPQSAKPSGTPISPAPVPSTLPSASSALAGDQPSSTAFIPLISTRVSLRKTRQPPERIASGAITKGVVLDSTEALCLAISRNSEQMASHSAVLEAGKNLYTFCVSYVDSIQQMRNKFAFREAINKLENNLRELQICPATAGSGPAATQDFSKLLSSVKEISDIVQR

ABL2 = biological target: T4, ABL2 (Homo sapiens, UniProt P42684); test: Kinobeads two-dose competition binding: ABL2; conditions: sheet CATDS matrix 2; Gene Name ABL2
T4 construct: endogenous in cells
T4 sequence (P42684 whole entry): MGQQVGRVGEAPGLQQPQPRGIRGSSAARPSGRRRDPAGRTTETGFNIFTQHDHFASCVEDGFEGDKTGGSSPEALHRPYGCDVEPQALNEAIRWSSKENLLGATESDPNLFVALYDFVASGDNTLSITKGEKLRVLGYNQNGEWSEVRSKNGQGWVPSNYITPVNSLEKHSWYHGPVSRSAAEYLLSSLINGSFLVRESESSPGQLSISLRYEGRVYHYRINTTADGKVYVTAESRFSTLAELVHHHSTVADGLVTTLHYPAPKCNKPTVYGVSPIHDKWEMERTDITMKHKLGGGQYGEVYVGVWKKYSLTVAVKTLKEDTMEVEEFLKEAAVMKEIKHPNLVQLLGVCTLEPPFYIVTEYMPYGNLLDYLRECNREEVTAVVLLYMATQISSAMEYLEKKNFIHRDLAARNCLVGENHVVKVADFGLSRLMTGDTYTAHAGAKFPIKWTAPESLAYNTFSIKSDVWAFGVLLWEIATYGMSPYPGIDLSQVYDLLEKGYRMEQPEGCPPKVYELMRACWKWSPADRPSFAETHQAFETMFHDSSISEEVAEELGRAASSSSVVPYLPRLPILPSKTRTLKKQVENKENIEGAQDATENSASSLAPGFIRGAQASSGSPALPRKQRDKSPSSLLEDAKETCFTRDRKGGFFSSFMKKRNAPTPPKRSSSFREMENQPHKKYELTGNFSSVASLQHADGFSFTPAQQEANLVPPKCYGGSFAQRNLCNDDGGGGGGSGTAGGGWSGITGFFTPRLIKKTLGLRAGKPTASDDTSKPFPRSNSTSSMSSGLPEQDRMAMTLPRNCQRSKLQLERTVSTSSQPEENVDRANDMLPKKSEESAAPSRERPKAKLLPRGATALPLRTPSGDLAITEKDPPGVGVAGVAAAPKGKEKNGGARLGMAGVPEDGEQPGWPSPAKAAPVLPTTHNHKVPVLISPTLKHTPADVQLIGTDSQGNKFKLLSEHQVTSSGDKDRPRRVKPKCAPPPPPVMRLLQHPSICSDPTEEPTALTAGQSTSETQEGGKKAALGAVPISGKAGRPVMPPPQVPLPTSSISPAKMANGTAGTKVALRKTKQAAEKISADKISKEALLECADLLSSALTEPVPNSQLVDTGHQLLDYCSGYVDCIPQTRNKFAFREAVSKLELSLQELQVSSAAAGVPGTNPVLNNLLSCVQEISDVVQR

[1] = average of replicates, read-out: Average of IC50 values NanoBRET PKN3
[2] = biological replicate number 1, read-out: Rep 1 IC50 NanoBRET PKN3
[3] = biological replicate number 2, read-out: Rep 2 IC50 NanoBRET PKN3
[4] = biological replicate number 3, read-out: Rep 3 IC50 NanoBRET PKN3
[5] = biological replicate number 4, read-out: Rep 4 IC50 NanoBRET PKN3
[6] = sheet "Kinobeads Drugmatrix - all", unit inferred, same values below 1000 recur in sheet "nanomolar"

| SMILES | IC50 (PKN3; HEK293T cells, in-cell target engagement, read-out: IC50 PKN3 NanoBRET) | IC50 (PKN3; [1]) | IC50 (PKN3; [2]) | IC50 (PKN3; [3]) | IC50 (PKN3; [4]) | IC50 (PKN3; [5]) | CATDS (ACAD11) | CATDS (AAK1) | CATDS (ACOX1) | CATDS (ABL1) | CATDS (ABL2) | potency estimated from few doses (AAK1) | potency estimated from few doses (AAK1; [6]) | potency estimated from few doses (ACOX1; sheet "Kinobeads Drugmatrix -nanomolar" (only nanomolar interactions), read-out: Kinobeads Drugmatrix -nanomolar: apparent Kd, ACOX1) |
| --- | --- | --- | --- | --- | --- | --- | --- | --- | --- | --- | --- | --- | --- | --- |
| Fc1ccc(-c2c(-c3ccncc3)[nH]c3cccnc23)cc1 [RO1153853-000] | 8000 nM | 2360 nM | 8030 nM | 951 nM | 164 nM | 295 nM | – | – | – | – | – | – | – | – |
| CCn1c(-c2nonc2N)nc2c(C#CC(C)(C)O)nc(OC[C@@H](N)c3ccccc3)cc21 [GSK938890A] | – | 97.8 nM | 310 nM | 31.2 nM | 28.1 nM | 22.3 nM | – | – | – | – | – | – | – | – |
| COc1cc2c(cc1Nc1nc(Nc3ccsc3C(N)=O)c3cc[nH]c3n1)N(C(=O)CN(C)C)CCC2(C)C [GSK2163632A] | – | – | – | – | – | – | 0 | 0 | 0 | 0 | 0 | – | – | – |
| COc1cc(N2CCN(C(C)C)CC2)ccc1Nc1nc(Nc2ccc(F)cc2C(=O)NC[C@@H](O)CO)c2cc[nH]c2n1 [GSK1392956A] | – | – | – | – | – | – | 0 | 0 | 0 | 0 | 0 | – | – | – |
| CCC(NN(C)C)=C1C(=O)Nc2ccc(C(C)=O)cc21 [BI00036838] | – | – | – | – | – | – | 0 | 0 | 0 | 0 | 0 | – | – | – |
| O=c1cc(N2CCOCC2)nc2n(Cc3cccc(Cl)c3Cl)c(C3CC3)nn12 [GSK2358994A] | – | – | – | – | – | – | 0 | 0 | 0 | 0 | 0 | – | – | – |
| Cn1cc(C2=C(c3cn(C4CCN(Cc5ccccn5)CC4)c4ccccc34)C(=O)NC2=O)c2ccccc21 [Enzastaurin, reference compound] | – | – | – | – | – | – | 0 | 0 | 0 | 0 | 0 | – | – | – |
| NCC1CNC(=O)c2cc3ccc(C(=O)Nc4cccnc4)cc3n2C1 (stereo not shown) [BI00614644] | – | – | – | – | – | – | 0 | 0 | 0 | 0 | 0 | – | – | – |
| Cc1cccc(Nc2nc(N[C@H]3CCNC3)ncc2C(N)=O)c1 [GSK2197149A] | – | – | – | – | – | – | 0 | 0.1293 | 0 | 0 | 0 | 64.6 nM | – | – |
| CC(C)c1cc(-c2ccc3c(N)n[nH]c3c2)nc(N)n1 [GSK2250882A] | – | – | – | – | – | – | 0 | 0.3935 | 0 | 0 | 0 | – | – | – |
| Cc1c(Cn2c(C)c(C)n3c(=O)cc(N4CCOCC4)nc23)cccc1C(F)(F)F [GSK2328680_KCGS] | – | – | – | – | – | – | 0 | 0 | 0 | 0 | 0 | – | – | – |
| COc1cc2nc(-c3cc(F)ccc3O)nc(N[C@@H]3CNC[C@H]3C(C)(C)O)c2cc1OC [CCT241533] | – | – | – | – | – | – | 0 | 0 | 0 | 0 | 0 | – | – | – |
| CC(C(=O)NC1CCN(c2ccnc(Nc3ccc(F)cc3)n2)C1)c1ccc(Cl)cc1 (stereo not shown) [GSK1379713A] | – | – | – | – | – | – | 0 | 0 | 0 | 0 | 0 | – | – | – |
| CNc1nc(-c2ccc3c(N)n[nH]c3c2)cc(N2C[C@@H](C(=O)Nc3ccccc3)CC[C@H]2C)n1 [GSK2298859A] | – | – | – | – | – | – | 0 | 0 | 0 | 0 | 0 | – | – | – |
| O=c1cc(N2CCOCC2)nc2n(Cc3ccccc3F)ccn12 [GSK2297428A] | – | – | – | – | – | – | 0 | 0 | 0 | 0 | 0 | – | – | – |
| COc1cc(Nc2nccc(N3CCC(NC(=O)c4cccc(C#N)c4)C3)n2)cc(OC)c1OC (stereo not shown) [GSK1379751A] | – | – | – | – | – | – | 0 | 0.2095 | 0 | 0 | 0 | – | 786 nM | – |
| COc1c(OCCCN2CCOCC2)ccc2c1N=C(NC(=O)c1cnc(N)nc1)N1CCN=C21 [Copanlisib, reference compound] | – | – | – | – | – | – | 0 | 0 | 0 | 0 | 0 | – | – | – |
| COc1cc(Nc2cnc(C#N)c(O[C@H](C)CN(C)C)n2)ncc1-c1cnn(C)c1 [CCT244747] | – | – | – | – | – | – | 0 | 0 | 0 | 0 | 0 | – | – | – |
| CCN1CCN(Cc2ccc(C(=O)Nc3ccc(C)c(Oc4ccc5c(c4)CC(=O)N5)c3)cc2C(F)(F)F)CC1 [DDR1-in-1] | – | – | – | – | – | – | 0 | 0 | 0 | 0 | 0 | – | – | – |
| Nc1ncc(-c2ccc3nccc(-c4ccncc4)c3c2)cc1S(=O)(=O)N1CCOCC1 [GSK1627798A] | – | – | – | – | – | – | 0 | 0 | 0 | 0 | 0 | – | – | – |
| COc1cc2c(cc1OC)C(=C(Nc1ccccc1)c1cccc(CN)c1)C(=O)N2 [BIBF0846CL] | – | – | – | – | – | – | 0 | 0 | 0 | 0 | 0 | – | – | – |
| CC(C)Nc1cc(-c2ccc3c(N)n[nH]c3c2)nc(N)n1 [GSK2221681A] | – | – | – | – | – | – | 0 | 0.2807 | 0 | 0 | 0 | – | 149 nM | – |
| NCC(NC(=O)c1cc(-c2cccnc2)c(-c2ccnc3[nH]ccc23)s1)c1ccccc1 (stereo not shown) [GSK1323434A] | – | – | – | – | – | – | 0 | 0 | 0 | 0 | 0 | – | – | – |
| COc1cc2ncn(-c3cc(OCc4ccccc4C(F)(F)F)c(C(C)=O)s3)c2cc1OC [GSK1030059A] | – | – | – | – | – | – | 0 | 0 | 0 | 0 | 0 | – | – | – |
| Cc1ccc(NC(=O)c2ccc(Cl)cc2)cc1-c1ccc(C(=O)Nc2ccncc2)cc1 [GSK1398467A] | – | – | – | – | – | – | 0 | 0 | 0.2266 | 0 | 0 | – | – | 761 nM |
| Cc1cnc(N)c(/C=C/c2cncc(C(=O)NCCc3ccc(Cl)cc3Cl)c2)c1 [GSK190937A] | – | – | – | – | – | – | 0 | 0 | 0 | 0 | 0 | – | – | – |
| CCS(=O)(=O)N1CC(CC#N)(n2cc(-c3ncnc4[nH]ccc34)cn2)C1 [Baricitinib, reference compound] | – | – | – | – | – | – | 0 | 0.1267 | 0 | 0 | 0 | – | – | – |
| CCNC(=O)O[C@H]1CN[C@H](C#Cc2cc3ncnc(Nc4ccc(OCc5cccc(F)c5)c(Cl)c4)c3s2)C1 [GSK192082A] | – | – | – | – | – | – | 0 | 0 | 0 | 0 | 0 | – | – | – |
